The target in the assay is T1, PTK6 (Brk) (Homo sapiens, UniProt Q13882).
T1 construct: purchased Thermo Fisher Scientific (Life Technologies) SelectScreen
Description: SelectScreen Z'LYTE. In kind it is biochemical. Put shortly: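 Percent values come from Thermo SelectScreen profiling of NU5455, combining activity and binding assays. CSF1R was run in Z'LYTE format at Km app ATP, and CAMK1 in Adapta format with ATP listed at 10.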

Molecules are shown by their SMILES.

T1 sequence (Q13882 whole entry): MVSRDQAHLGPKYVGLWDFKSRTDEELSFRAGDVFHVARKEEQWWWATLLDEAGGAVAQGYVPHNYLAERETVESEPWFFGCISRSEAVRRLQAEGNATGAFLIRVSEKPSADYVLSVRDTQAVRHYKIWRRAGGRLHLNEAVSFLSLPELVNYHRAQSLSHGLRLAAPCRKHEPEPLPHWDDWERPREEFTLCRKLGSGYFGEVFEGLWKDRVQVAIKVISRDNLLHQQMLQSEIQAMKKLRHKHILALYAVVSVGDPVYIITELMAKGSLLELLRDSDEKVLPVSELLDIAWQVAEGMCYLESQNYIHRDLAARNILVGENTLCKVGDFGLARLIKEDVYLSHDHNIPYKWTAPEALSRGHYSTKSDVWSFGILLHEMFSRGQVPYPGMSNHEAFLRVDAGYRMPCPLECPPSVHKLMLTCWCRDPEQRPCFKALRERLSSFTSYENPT

The inhibition is the drop in the measured response relative to a control, in per cent. `CN(C(=O)CN1CCOCC1)c1ccc2sc3c(-c4cccc5c(=O)cc(N6CC7CCC(C6)O7)oc45)cccc3c2c1` [NU5455] returned an inhibition at 1 µM of 0.7%.

These data come from paper PMC6934184, “Selective DNA-PKcs inhibition extends the therapeutic index of localized radiotherapy and chemotherapy” (The Journal of Clinical Investigation, 2019).
